Measurements taken from patent US8658697B2 (priority 2004, dated 2014).
pEC50: −log10 of the molar value.

How the values were obtained:
Experiment in all cases: microbe, parasite or virus in culture
[1] = tested on: Tacaribe virus (TRVL 11573); type: cell-based; conditions: Mammarenavirus tacaribeense, Vero, read-out: Tacaribe EC50
[2] = tested on: Machupo pseudotyped virus; type: cell-based; conditions: Mammarenavirus machupoense, read-out: EC50 vs. pseudotyped virus (μM) Machupo
[3] = tested on: Guanarito pseudotyped virus; type: cell-based; conditions: Mammarenavirus guanaritoense, read-out: EC50 vs. pseudotyped virus (μM) Guanarito
Tacaribe virus = type: cell-based; conditions: Mammarenavirus tacaribeense, Vero, 168 h, read-out: Tacaribe EC50
VSV pseudotyped virus = type: cell-based; conditions: Vesicular stomatitis virus, read-out: EC50 vs. pseudotyped virus (μM) VSV
[4] = tested on: Tacaribe pseudotyped virus; type: cell-based; conditions: Mammarenavirus tacaribeense, read-out: EC50 vs. pseudotyped virus (μM) Tacaribe
[5] = tested on: Pichinde pseudotyped virus; type: cell-based; conditions: read-out: EC50 vs. pseudotyped virus (μM) Pichinde
Candid-1 vaccine virus = type: cell-based, Junin virus (vaccine strain); conditions: Mammarenavirus juninense, Vero, 168 h, read-out: Candid 1 EC50

COc1cccc(OC)c1NC(=O)NC(C)(C(F)(F)F)C(F)(F)F [Example 73, l-(2,6-Dimethoxyphenyl)-3-(2,2,2-trifluoro-1-methyl-1-trifluoromethylethyl)-urea]
pEC50 [1]: 5.30 to 6.00

CC(NC(=O)Nc1ccc(C(=O)O)cc1OC(F)(F)F)(C(F)(F)F)C(F)(F)F [Example 74, 3-Trifluormethoxy-4-[3-(1,1-bis-trifluoromethylethyl)-ureido]benzoic acid]
pEC50 [1]: 5.30 to 6.00

CC(NC(=O)Nc1ccccc1)(C(F)(F)F)C(F)(F)F [Example 75, 1-Phenyl-3-(2,2,2-trifluoro-1-methyl-1-trifluoromethylethyl)-urea]
pEC50 [1]: 5.30 to 6.00

CC(NC(=O)Nc1cccc(C#N)c1)(C(F)(F)F)C(F)(F)F [Example 76, 1-(3-Cyanophenyl)-3-(2,2,2-trifluoro-1-methyl-1-trifluoromethylethyl)-urea]
pEC50 [1]: 5.30 to 6.00

COc1cccc(NC(=O)NC(C)(C(F)(F)F)C(F)(F)F)c1 [Example 77, 1-(3-Methoxyphenyl)-3-(2,2,2-trifluoro-1-methyl-1-trifluoromethylethyl)-urea]
pEC50 [1]: 5.30 to 6.00

CC(NC(=O)Nc1ccccc1OC(F)(F)C(F)F)(C(F)(F)F)C(F)(F)F [Example 78, 1-(2-(1,1,2,2-Tetrafluoroethoxy)phenyl)-3-(2,2,2-trifluoro-1-methyl-1-trifluoromethylethyl)-urea]
pEC50 [1]: 5.30 to 6.00

CC(NC(=O)Nc1cccc(S(N)(=O)=O)c1)(C(F)(F)F)C(F)(F)F [Example 79, 3-[3-(1,1-Bis-trifluoromethylethyl)-ureido]benzenesulfonamide]
pEC50 [1]: 5.30 to 6.00

CC(NC(=O)Nc1cccc(F)c1)(C(F)(F)F)C(F)(F)F [Example 80, 1-(3-fluorophenyl)-3-(2,2,2-trifluoro-1-methyl-1-trifluoromethylethyl)-urea]
pEC50 [1]: 5.30 to 6.00

CC(NC(=O)Nc1ccc(Br)cc1)(C(F)(F)F)C(F)(F)F [Example 81, 1-(4-Bromophenyl)-3-(2,2,2-trifluoro-1-methyl-1-trifluoromethylethyl)-urea]
pEC50 [1]: 5.30 to 6.00

CC(NC(=O)Nc1ccccc1C#N)(C(F)(F)F)C(F)(F)F [Example 82, 1-(2-Cyanophenyl)-3-(2,2,2-trifluoro-1-methyl-1-trifluoromethylethyl)-urea]
pEC50 [1]: 5.30 to 6.00

CC(NC(=O)Nc1ccc(C#N)cc1)(C(F)(F)F)C(F)(F)F [Example 83, 1-(4-Cyanophenyl)-3-(2,2,2-trifluoro-1-methyl-1-trifluoromethylethyl)-urea]
pEC50 [1]: 5.30 to 6.00

CC(NC(=O)Nc1cccc2c1OC(F)(F)O2)(C(F)(F)F)C(F)(F)F [Example 84, 1-(2,2-Difluorobenzo[1,3]dioxol-4-yl)-3-(2,2,2-trifluoro-1-methyl-1-trifluoromethylethyl)-urea]
pEC50 [1]: 5.30 to 6.00

CC(NC(=O)Nc1ccc(Cl)cc1)(C(F)(F)F)C(F)(F)F [Example 85, 1-(4-Chlorophenyl)-3-(2,2,2-trifluoro-1-methyl-1-trifluoromethylethyl)-urea]
pEC50 [1]: < 5.30

Cc1cccc(NC(=O)NC(C)(C(F)(F)F)C(F)(F)F)c1 [Example 86, 1-(3-Methylphenyl)-3-(2,2,2-trifluoro-1-methyl-1-trifluoromethylethyl)-urea]
pEC50 [1]: < 5.30

CC(NC(=O)Nc1ccc(S(N)(=O)=O)cc1)(C(F)(F)F)C(F)(F)F [Example 87, 4-[3-(1,1-Bis-trifluoromethylethyl)-ureido]benzenesulfonamide]
pEC50 [1]: < 5.30

CC(NC(=O)Nc1c(Br)cccc1Br)(C(F)(F)F)C(F)(F)F [Example 88, 1-(2,6-Dibromophenyl)-3-(2,2,2-trifluoro-1-methyl-1-trifluoromethylethyl)-urea]
pEC50 [1]: < 5.30

Cc1ccccc1NC(=O)NC(C)(C(F)(F)F)C(F)(F)F [Example 89, 1-(2-Methylphenyl)-3-(2,2,2-trifluoro-1-methyl-1-trifluoromethylethyl)-urea]
pEC50 [1]: < 5.30

Cc1ccc(NC(=O)NC(C)(C(F)(F)F)C(F)(F)F)cc1 [Example 90, 1-(4-Methylphenyl)-3-(2,2,2-trifluoro-1-methyl-1-trifluoromethylethyl)-urea]
pEC50 [1]: < 5.30

CC(NC(=O)N1CCCC1)(C(F)(F)F)C(F)(F)F [Example 91, 1-Pyrrolidinyl-1-(2,2,2-trifluoro-1-methyl-1-trifluoromethylethyl)-carboxamide]
pEC50 [1]: < 5.30

CC(NC(=O)Nc1ccc(F)cc1)(C(F)(F)F)C(F)(F)F [Example 92, 1-(4-Fluorophenyl)-3-(2,2,2-trifluoro-1-methyl-1-trifluoromethylethyl)-urea]
pEC50 [1]: < 5.30

CC(NC(=O)Nc1ccc(Br)cc1Br)(C(F)(F)F)C(F)(F)F [Example 93, 1-(2,4-Dibromophenyl)-3-(2,2,2-trifluoro-1-methyl-1-trifluoromethylethyl)-urea]
pEC50 [1]: < 5.30

CC(NC(=O)N1CCCCCC1)(C(F)(F)F)C(F)(F)F [Example 94, Azepane-1-carboxylic acid (2,2,2-trifluoro-1-methyl-1-trifluoromethylethyl)-amide]
pEC50 [1]: < 5.30

CC(NC(=O)Nc1ccc(Br)cc1OC(F)(F)F)(C(F)(F)F)C(F)(F)F [Example 95, 1-(4-Bromo-2-trifluoromethoxyphenyl)-3-(2,2,2-trifluoro-1-methyl-1-trifluoromethylethyl)-urea]
pEC50 [1]: < 5.30

CC(NC(=O)Nc1ccccc1OC(F)(F)F)(C(F)(F)F)C(F)(F)F [Example 96, 1-(2-Trifluoromethoxyphenyl)-3-(2,2,2-trifluoro-1-methyl-1-trifluoromethylethyl)-urea]
pEC50 [1]: < 5.30

COc1ccccc1NC(=O)NC(C)(C(F)(F)F)C(F)(F)F [Example 98, 1-(2-Methoxyphenyl)-3-(2,2,2-trifluoro-1-methyl-1-trifluoromethylethyl)-urea]
pEC50 [1]: < 5.30

CCC(NC(=O)NNC(=O)c1cc(OCC(F)(F)F)ccc1OCC(F)(F)F)(C(F)(F)F)C(F)(F)F [Example 99, 2-[2,5-bis(2,2,2-trifluoroethoxy)benzoyl]-N-[1,1-bis(trifluoromethyl)propyl]hydrazinecarboxamide]
EC50 [2]: 0.5 to 1 µM | EC50 [3]: 1 to 5 µM | pEC50 (Tacaribe virus): > 6.30 | EC50 (VSV pseudotyped virus): > 5 µM | EC50 [4]: < 0.5 µM | EC50 [5]: 1 to 5 µM | pEC50 (Candid-1 vaccine virus): < 5.30

CCC(NC(=O)NNC(=O)c1ccc(C(C)(C)C)cc1)(C(F)(F)F)C(F)(F)F [Example 100, N-[1,1-bis(trifluoromethyl)propyl]-2-(4-tert-butylbenzoyl)hydrazinecarboxamide]
EC50 [2]: < 0.5 µM | EC50 [3]: < 0.5 µM | pEC50 (Tacaribe virus): > 6.30 | EC50 (VSV pseudotyped virus): > 5 µM | EC50 [4]: < 0.5 µM | EC50 [5]: 1 to 5 µM | pEC50 (Candid-1 vaccine virus): 5.30 to 6.00

CCC(NC(=O)NNC(=O)c1ccc(-c2ccccc2)cc1)(C(F)(F)F)C(F)(F)F [Example 101, 2-(1,1′-biphenyl-4-ylcarbonyl)-N-[1,1-bis(trifluoromethyl)propyl] hydrazinecarboxamide]
EC50 [2]: < 0.5 µM | EC50 [3]: < 0.5 µM | pEC50 (Tacaribe virus): > 6.30 | EC50 (VSV pseudotyped virus): > 5 µM | EC50 [4]: < 0.5 µM | EC50 [5]: 0.5 to 1 µM | pEC50 (Candid-1 vaccine virus): 5.30 to 6.00

CCC(NC(=O)NNC(=O)c1cccc2ccccc12)(C(F)(F)F)C(F)(F)F [Example 102, N-[1,1-bis(trifluoromethyl)propyl]-2-(1-naphthoyl)hydrazinecarboxamide]
EC50 [2]: < 0.5 µM | EC50 [3]: 1 to 5 µM | pEC50 (Tacaribe virus): > 6.30 | EC50 (VSV pseudotyped virus): > 5 µM | EC50 [4]: < 0.5 µM | EC50 [5]: 1 to 5 µM | pEC50 (Candid-1 vaccine virus): < 5.30

CCC(NC(=O)NNC(=O)c1ccccc1-c1ccccc1)(C(F)(F)F)C(F)(F)F [Example 103]
EC50 [2]: < 0.5 µM | EC50 [3]: < 0.5 µM | pEC50 (Tacaribe virus): 6.00 to 6.30 | EC50 (VSV pseudotyped virus): > 5 µM | EC50 [4]: < 0.5 µM | EC50 [5]: 1 to 5 µM | pEC50 (Candid-1 vaccine virus): 5.30 to 6.00

CCC(NC(=O)NNC(=O)c1ccc(C)cc1)(C(F)(F)F)C(F)(F)F [Example 104, N-[1,1-bis(trifluoromethyl)propyl]-2-(4-methylbenzoyl)hydrazinecarboxamide]
EC50 [2]: < 0.5 µM | EC50 [3]: < 0.5 µM | pEC50 (Tacaribe virus): 6.00 to 6.30 | EC50 (VSV pseudotyped virus): > 5 µM | EC50 [4]: < 0.5 µM | EC50 [5]: 1 to 5 µM | pEC50 (Candid-1 vaccine virus): < 5.30

CCC(NC(=O)NNC(=O)c1ccc2ccccc2c1)(C(F)(F)F)C(F)(F)F [Example 105, N-[1,1-bis(trifluoromethyl)propyl]-2-(2-naphthoyl)hydrazinecarboxamide]
EC50 [2]: < 0.5 µM | EC50 [3]: < 0.5 µM | pEC50 (Tacaribe virus): > 6.30 | EC50 (VSV pseudotyped virus): > 5 µM | EC50 [4]: < 0.5 µM | EC50 [5]: 1 to 5 µM | pEC50 (Candid-1 vaccine virus): 5.30 to 6.00

CCC(NC(=O)NNC(=O)c1cc(OC)ccc1OC)(C(F)(F)F)C(F)(F)F [Example 106, N-[1,1-bis(trifluoromethyl)propyl]-2-(2,5-dimethoxybenzoyl)hydrazinecarboxamide]
EC50 [2]: < 0.5 µM | EC50 [3]: < 0.5 µM | pEC50 (Tacaribe virus): > 6.30 | EC50 (VSV pseudotyped virus): > 5 µM | EC50 [4]: < 0.5 µM | EC50 [5]: > 5 µM | pEC50 (Candid-1 vaccine virus): 5.30 to 6.00

CCC(NC(=O)NNC(=O)c1ccc(Cl)c(Cl)c1)(C(F)(F)F)C(F)(F)F [Example 107, N-[1,1-bis(trifluoromethyl)propyl]-2-(3,4-dichlorobenzoyl)hydrazinecarboxamide]
EC50 [2]: < 0.5 µM | EC50 [3]: < 0.5 µM | pEC50 (Tacaribe virus): 6.00 to 6.30 | EC50 (VSV pseudotyped virus): > 5 µM | EC50 [4]: < 0.5 µM | EC50 [5]: 1 to 5 µM | pEC50 (Candid-1 vaccine virus): 5.30 to 6.00

CCC(NC(=O)NNC(=O)c1c(C)cc(C)cc1C)(C(F)(F)F)C(F)(F)F [Example 111, N-[1,1-bis(trifluoromethyl)propyl]-2-(mesitylcarbonyl)hydrazinecarboxamide]
EC50 [2]: < 0.5 µM | EC50 [3]: 0.5 to 1 µM | pEC50 (Tacaribe virus): 5.30 to 6.00 | EC50 (VSV pseudotyped virus): > 5 µM | EC50 [4]: < 0.5 µM | EC50 [5]: 1 to 5 µM
